In PubChem BioAssay (NCI):
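Values below derive from 48-hour exposures of cells grown in 96-well plates, with endpoints linearly interpolated between the two concentrations bracketing the appropriate inhibition level. The concentration for 50% growth inhibition is given as GI50. TGI: concentration producing complete growth inhibition.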

Legend:
Test in all cases: NCI tumour cell line growth inhibition, 48 h
DU-145 prostate = tested on: DU-145 prostate
RXF 393 renal = tested on: RXF 393 renal
BT-549 breast = tested on: BT-549 breast
UO-31 renal = tested on: UO-31 renal
MDA-MB-231 breast = tested on: MDA-MB-231 breast
A498 renal = tested on: A498 renal
EKVX NSCLC = tested on: EKVX NSCLC
NCI-H460 lung = tested on: NCI-H460 lung
UACC-257 melanoma = tested on: UACC-257 melanoma
SR leukemia = tested on: SR leukemia

SMILES	GI50 (DU-145 prostate) [µM]	TGI (DU-145 prostate) [µM]	GI50 (RXF 393 renal) [µM]	TGI (RXF 393 renal) [µM]	GI50 (BT-549 breast) [µM]	TGI (BT-549 breast) [µM]	GI50 (UO-31 renal) [µM]	TGI (UO-31 renal) [µM]	GI50 (MDA-MB-231 breast) [µM]	TGI (MDA-MB-231 breast) [µM]	GI50 (A498 renal) [µM]	TGI (A498 renal) [µM]	GI50 (EKVX NSCLC) [µM]	TGI (EKVX NSCLC) [µM]	GI50 (NCI-H460 lung) [µM]	TGI (NCI-H460 lung) [µM]	GI50 (UACC-257 melanoma) [µM]	TGI (UACC-257 melanoma) [µM]	GI50 (SR leukemia) [µM]	TGI (SR leukemia) [µM]
COC(=O)c1ccc2c(c1)C(=O)c1c-2n(C)c(=O)c2cc(OC)c(OC)cc12	> 50	> 50	0.123	26.1	> 50	> 50	> 50	> 50	21.2	> 50	> 50	> 50	> 50	> 50	> 50	> 50				
CC(=O)[CH-]C(=O)c1ccccc1.CC(=O)[CH-]C(=O)c1ccccc1.CC[C@H](/C=C/C(C)[C@H]1CCC2[C@@H]3CC=C4C[C@@H]([O-])CC[C@]4(C)C3CC[C@@]21C)C(C)C.CC[O-].[Ti+4] (stereo partly specified)			84.4	> 100			> 100	> 100			> 100	> 100	> 100	> 100	> 100	> 100	> 100	> 100		
Cc1ccc(/C=C/C(=N/N=C(N)N)c2ccccc2)cc1	3.33	10.8	1.62	4.03			3.75	17.2	1.7	4.56	1.04	4.92	10.1	28	3.1	10.1	2.96	12.9	0.897	6.32
COC(=O)C[CH2][Ge]([CH3])([CH3])[S]c1ccccc1			4.08	23.3			15.6	33.1					28.2	86.4	16.9	30.6	51.2	> 100		
Clc1nc(Cl)c2c3c(sc2n1)CCCC3	3.71	> 100	4.06	> 100	3.63	> 100		> 100			> 100	> 100	> 100	> 100	> 100	> 100	> 26.1	> 100		
O=C(N/C(=C\c1ccc(/C=C(\NC(=O)c2ccccc2)c2nc3cc(Cl)ccc3[nH]2)cc1)c1nc2cc(Cl)ccc2[nH]1)c1ccccc1				85.3				> 100				> 100		91.9		> 100		> 100		
CSc1nc2c(nc(N)n2C2OC(COC(C)=O)C(OC(C)=O)C(OC(C)=O)C2OC(C)=O)c(=O)n1C (stereo unspecified)				> 100				> 100				> 100		> 100		> 100		> 100		
N#Cc1ccsc1NC(=O)COC(=O)c1cccc(S(=O)(=O)N2CCc3ccccc32)c1	33.7	> 100	31.3	> 100	34	> 100	41.2	> 100			> 100	> 100	68.3	> 100	18.2	> 100	28.9	> 100	22.9	> 100
